Data on seven molecules can be found in US4591590A, “Benzhydrylpiperazine derivatives, processes for the preparation thereof and pharmaceutical composition comprising the same” (Fujisawa Pharmaceutical Co., Ltd., priority 1982, dated 1986).

Where a name gives a salt, the structure may show the parent alone.

In the test the test system is anaphylactic asthma in guinea-pigs. Briefly: Antagonism to anaphylactic asthma in guinea-pigs (passively sensitized with rabbit anti-egg albumin antiserum, egg albumin aerosol challenge; survival). Particulars: 10 mg/kg, oral, 30 minutes before egg albumin aerosol challenge; dose group 3 or 5 animals (* = 3 guinea-pigs: Examples 10-(5) and 11). The test is classed as in vivo, guinea-pig (male Hartley strain). As to the method:
Equal volumes of a saline solution of egg albumin (200 mg/ml) and of Freund's Complete Adjuvant were mixed and emulsified. Each male New Zealand white strain rabbits, each weighing 2 to 2.5 kg., received an intramuscular injection of 0.5 ml of the emulsion in the left and right thigh regions. One week later, they received an intradermal injection of 0.25 ml of a saline solution of egg albumin (concentration: 20 mg/ml) in the different four sites of the dorsal skin surface three times every other week. Blood samples were collected from the carotid artery one week after the last injection.
The level of anaphylactic anti-egg albumin antibodies in pools of sera were determined by passive cutaneous anaphylaxis (PCA) reactions using shaven Hartley strain test guinea-pigs.
Antiserum was serially diluted (two fold) in saline and 0.1 ml of each antiserum dilution were injected intradermally into the dorsal skin surface of the test guinea-pigs. 24 hours after intradermal sensitization,Egg albumin-specific PCA reactions were elicited by intravenous injection of 10 mg of egg albumin in 1 ml of 1% Evans blue dye dissolved in saline. Reactions were read and recorded as the highest dilution of serum evoking threshold PCA reactivity (5 mm diameter).
Male Hartley strain guinea-pigs, weighing 305 to 400 g, were used. Animals were sensitized by an intravenous injection of rabbit antiserum against egg albumin (4000 PCA titer) with 0.5 ml/animal. After 24 hours, animals were placed individually in a plastic chamber of 5.3 liter volume. An aerosol of 5% egg albumin solution was sprayed in the chamber at a rate of 0.16 ml/min with a commercial nebulizer. The test compounds were given to the animals orally 30 minutes before the challenge with the egg albumin solution. Each dose group consisted of 3 or 5 animals. The inhibitory effect of the test compounds was determined from the number of surviving animals more than 2 hours after spray of the antigen.
Turning to `Cl.Cl.O=C(NCCCN1CCN(C(c2ccccc2)c2ccccc2)CC1)c1ccccc1` [Example 7, 1-(3-benzoylaminopropyl)-4-benzhydrylpiperazine dihydrochloride], the “Inhibitory effect of anaphylactic asthma in guinea-pig (from number of surviving animals more than 2 hours after spray of the antigen)” value (shortened to “Inhibitory effect of anaphylactic asthma”) is 100%.
To `COc1ccccc1C(=O)NCCCN1CCN(C(c2ccccc2)c2ccccc2)CC1.Cl.Cl` [Example 10-(2), 1-[3-(2-Methoxybenzoylamino)propyl]-4-benzhydrylpiperazine dihydrochloride] belongs 80%; to `CS(=O)(=O)Nc1cccc(CN2CCN(C(c3ccccc3)c3ccccc3)CC2)n1.Cl.Cl` [Example 13, 1-(6-methanesulfonylaminopyridin-2-ylmethyl)-4-benzhydrylpiperazine dihydrochloride], 100%; to `CC(=O)CCCN1CCN(C(c2ccccc2)c2ccccc2)CC1.O=C(O)/C=C/C(=O)O` [Example 1, 1-(4-oxo-1-pentyl)-4-benzhydrylpiperazine fumarate], 100%.
Take `CS(=O)(=O)Nc1ccccc1C(=O)NCCCN1CCN(C(c2ccccc2)c2ccccc2)CC1` [Example 10-(5), 1-[3-(2-Methanesulfonylaminobenzoylamino)propyl]-4-benzhydrylpiperazinedihydrochloride]: the “Inhibitory effect of anaphylactic asthma” value came out at 100%.
`O=C(Cn1c(=O)sc2ccccc21)NCCCN1CCN(C(c2ccccc2)c2ccccc2)CC1` [Example 10-(8), 1-[3-[2-(2-Oxo-benzothiazolin-3-yl)acetylamino]propyl]-4-benzhydrylpiperazine]: the “Inhibitory effect of anaphylactic asthma” value turned out to be 80%.
With `CC(=O)NCCCN1CCN(C(c2ccccc2)c2ccccc2)CC1` [Example 11, 1-(3-acetylaminopropyl)-4-benzhydrylpiperazine], the “Inhibitory effect of anaphylactic asthma” value was 100%.
